Source: patent US10617693B2, “Methods of treating and/or preventing actinic keratosis” (Athenex, Inc., priority 2017, dated 2020)

Test system: subjects with AK on the face or scalp
Assay: Phase 2a study KX01-AK-002: local skin reactions (grade 0 not present to 4 worst) and adverse events, 0.5 mg KX-01 on 25 cm^2
Assay type: in vivo, human
Text: An ongoing Phase 2a, open-label, multicenter, activity and safety study of KX-01 administered topically in subjects with AK on the face or scalp is described herein. […] Secondary objectives are to assess the activity of KX-01 administered topically during Days 1-57 based on reduction of AK lesion counts from baseline, assess the safety and tolerability and pharmacokinetics, and contrast the dose regimens (5-day treatment with 3-day treatment) in terms of activity and safety in subjects with AK on the face or scalp. This uncontrolled, nonrandomized trial is being conducted at 16 investigational sites in the United States. Enrollment is sequential for 2 cohorts of approximately 80 subjects each. Enrollment is closed for Cohort 1 and ongoing for Cohort 2. The two treatment cohorts are summarized below: • Cohort 1: 0.5 mg KX-01 administered topically to a contiguous treatment area of 25 cm^2 with 4-8 clinically typical AK lesions for 5 consecutive days • Cohort 2: 0.5 mg KX-01 administered topically to a contiguous treatment area of 25 cm^2 with 4-8 clinically typical AK lesions for 3 consecutive days
0.5 mg KX-01 is administered topically to an area of 25 cm^2 on the face or scalp by site staff on treatment days. […] AK lesion counts are recorded at baseline, days 8, 15, 29, and 57. […] Standardized photography of treatment area is performed at baseline, day 8 and day 57. Plasma samples are being collected at preplanned time points on days 1 and 5 for Cohort 1, and on days 1 and 3 for Cohort 2.
Absence or presence of hyperpigmentation, hypopigmentation and scarring are also assessed. Application site reactions not classified as LSRs are reported as AEs. […] LSRs and AEs are reported separately. All LSRs, pigmentation, and scarring in the treatment area will be followed to resolution or stabilization.
The range of possible composite scores is 0-24.
The Phase 2a trial described in Example 2a was completed with 84 eligible subjects enrolled in each of two cohorts: one cohort was subjected to the treatment for 5 consecutive days, and the other cohort was subjected to the treatment for 3 consecutive days. The results are described below and in FIG. 5.

## O=C(Cc1ccc(-c2ccc(OCCN3CCOCC3)cc2)cn1)NCc1ccccc1 [KX-01]
Day 8, Cohort 1 (5-day)
  Vesiculation/Pustulation grade 3, n/N subjects: 0
  Vesiculation/Pustulation grade 4, n/N subjects: 0
Day 15, Cohort 1 (5-day)
  Crusting grade 0, n/N subjects: 63/67
  Crusting grade 1, n/N subjects: 4/67
  Crusting grade 2, n/N subjects: 0
  Crusting grade 3, n/N subjects: 0
  Crusting grade 4, n/N subjects: 0
  Erosion/Ulceration grade 0, n/N subjects: 66/67
  Erosion/Ulceration grade 1, n/N subjects: 1/67
  Erosion/Ulceration grade 2, n/N subjects: 0
  Erosion/Ulceration grade 3, n/N subjects: 0
  Erosion/Ulceration grade 4, n/N subjects: 0
  Erythema grade 0, n/N subjects: 27/67
  Erythema grade 1, n/N subjects: 25/67
  Erythema grade 2, n/N subjects: 13/67
  Erythema grade 3, n/N subjects: 2/67
  Erythema grade 4, n/N subjects: 0
  Flaking/Scaling grade 0, n/N subjects: 39/67
  Flaking/Scaling grade 1, n/N subjects: 14/67
  Flaking/Scaling grade 2, n/N subjects: 9/67
  Flaking/Scaling grade 3, n/N subjects: 5/67
  Flaking/Scaling grade 4, n/N subjects: 0
  Swelling grade 0, n/N subjects: 67/67
  Swelling grade 1, n/N subjects: 0
  Swelling grade 2, n/N subjects: 0
  Swelling grade 3, n/N subjects: 0
  Swelling grade 4, n/N subjects: 0
  Vesiculation/Pustulation grade 0, n/N subjects: 67/67
  Vesiculation/Pustulation grade 1, n/N subjects: 0
  Vesiculation/Pustulation grade 2, n/N subjects: 0
  Vesiculation/Pustulation grade 3, n/N subjects: 0
  Vesiculation/Pustulation grade 4, n/N subjects: 0
Day 29, Cohort 1 (5-day)
  Crusting grade 0, n/N subjects: 65/67
  Crusting grade 1, n/N subjects: 2/67
  Crusting grade 2, n/N subjects: 0
  Crusting grade 3, n/N subjects: 0
  Crusting grade 4, n/N subjects: 0
  Erosion/Ulceration grade 0, n/N subjects: 67/67
  Erosion/Ulceration grade 1, n/N subjects: 0
  Erosion/Ulceration grade 2, n/N subjects: 0
  Erosion/Ulceration grade 3, n/N subjects: 0
  Erosion/Ulceration grade 4, n/N subjects: 0
  Erythema grade 0, n/N subjects: 45/67
  Erythema grade 1, n/N subjects: 18/67
  Erythema grade 2, n/N subjects: 4/67
  Erythema grade 3, n/N subjects: 0
  Erythema grade 4, n/N subjects: 0
  Flaking/Scaling grade 0, n/N subjects: 51/67
  Flaking/Scaling grade 1, n/N subjects: 13/67
  Flaking/Scaling grade 2, n/N subjects: 2/67
  Flaking/Scaling grade 3, n/N subjects: 1/67
  Flaking/Scaling grade 4, n/N subjects: 0
  Swelling grade 0, n/N subjects: 66/67
  Swelling grade 1, n/N subjects: 1/67
  Swelling grade 2, n/N subjects: 0
  Swelling grade 3, n/N subjects: 0
  Swelling grade 4, n/N subjects: 0
  Vesiculation/Pustulation grade 0, n/N subjects: 67/67
  Vesiculation/Pustulation grade 1, n/N subjects: 0
  Vesiculation/Pustulation grade 2, n/N subjects: 0
  Vesiculation/Pustulation grade 3, n/N subjects: 0
  Vesiculation/Pustulation grade 4, n/N subjects: 0
Day 57, Cohort 1 (5-day)
  Crusting grade 0, n/N subjects: 63/67
  Crusting grade 1, n/N subjects: 4/67
  Crusting grade 2, n/N subjects: 0
  Crusting grade 3, n/N subjects: 0
  Crusting grade 4, n/N subjects: 0
  Erosion/Ulceration grade 0, n/N subjects: 67/67
  Erosion/Ulceration grade 1, n/N subjects: 0
  Erosion/Ulceration grade 2, n/N subjects: 0
  Erosion/Ulceration grade 3, n/N subjects: 0
  Erosion/Ulceration grade 4, n/N subjects: 0
  Erythema grade 0, n/N subjects: 53/67
  Erythema grade 1, n/N subjects: 12/67
  Erythema grade 2, n/N subjects: 2/67
  Erythema grade 3, n/N subjects: 0
  Erythema grade 4, n/N subjects: 0
  Flaking/Scaling grade 0, n/N subjects: 57/67
  Flaking/Scaling grade 1, n/N subjects: 10/67
  Flaking/Scaling grade 2, n/N subjects: 0
  Flaking/Scaling grade 3, n/N subjects: 0
  Flaking/Scaling grade 4, n/N subjects: 0
  Swelling grade 0, n/N subjects: 67/67
  Swelling grade 1, n/N subjects: 0
  Swelling grade 2, n/N subjects: 0
  Swelling grade 3, n/N subjects: 0
  Swelling grade 4, n/N subjects: 0
  Vesiculation/Pustulation grade 0, n/N subjects: 67/67
  Vesiculation/Pustulation grade 1, n/N subjects: 0
  Vesiculation/Pustulation grade 2, n/N subjects: 0
  Vesiculation/Pustulation grade 3, n/N subjects: 0
  Vesiculation/Pustulation grade 4, n/N subjects: 0
After 5 days of treatment, interim
  Grade 4 LSRs: no Grade 4 LSRs were observed
Topically once daily for 5 days
  Safety and tolerability: safe and well tolerated
